Results reported in US20260191838A1, “COMBINATIONS COMPRISING A MENIN-MLL INHIBITOR AND A BCL-2 INHIBITOR” (JANSSEN PHARMACEUTICA NV, priority 2022, published 2026).

Tests used:
MV4-11 cells = assay: In vitro proliferation (Cell Titer Glo), Compound 51 with decitabine and venetoclax, MV4-11; type: cell-based, human; parameters: key to Synergy/antagonism call (maxR test): no asterisk: absence of any asterisk indicates an additive effect; antagonism is indicated by “*”; synergy is indicated by “**”; Effect size (BIGL, HSA null model): scale not given here
Protocol: (§1) 3a) In Vitro Proliferation—Menin-MLL Inhibitor in Combination with a DNA Hypomethylating Agent (Decitabine) and a BCL2 Inhibitor (Venetoclax)
(§2) The effect of Compound 51 in combination with decitabine and venetoclax was determined in proliferation assays.
(§3) AML cell lines MOLM-13, OCI-AML3 and MV4-11 were purchased from DSMZ. MOLM-13 were grown in RPMI medium supplemented with 10% Fetal Bovine Serum (FBS) and 1% penicillin/streptomycin. MV4-11 cells were grown in IMDM medium supplemented with 10% FBS and 1% penicillin/streptomycin. OCI-AML3 cells were cultured in 80-90% alpha-MEM (without ribo- and deoxyribonucleosides)+10-20% FBS. All cell lines were cultured at 37° C. in 5% CO2 atmosphere.
(§4) AML cell lines (10×10^3 cells/well) were seeded in 96-well plates and grown for 6 days in serum (10%)-containing medium in the presence or absence of inhibitors at the indicated concentrations. Proliferation was analyzed by means of a Cell Titer Glo assay using the CellTiter 96 Aqueous One Solution Cell Proliferation Assay (Promega, Madison, WI, USA), according to the manufacturer's instructions. Data are mean with standard deviation from two to four independent experiments in technical triplicates.
(§5) R-based Biochemically Intuitive Generalized Loewe (BIGL) model implemented with a highest single agent (HSA) null model. Specifically, the BIGL methodology was applied to calculate drug-drug interactions (Van der Borght, K., Tourny, A., Bagdziunas, R. et al. BIGL: Biochemically Intuitive Generalized Loewe null model for prediction of the expected combined effect compatible with partial agonism and antagonism. Sci Rep 7, 17935 (2017); Thas, O., Tourny, A., Verbist, B., Hawinkel, S., Nazarov, M., Mutambanengwe, K., & Bijnens, L. Statistical detection of synergy: new methods and a comparative study. Pharmaceutical Statistics (2021)).
(§6) Synergy matrix results of the BIGL analysis of the cell line data with HSA as mean model calculated on the basis of the cellular metabolic activity using Cell Titer-Glo assay. Bootstrap confidence intervals are indicated. Effect sizes and their confidence intervals are shown. […] No significant average effect if zero is included in the interval.

OCI-AML3 cells = assay: In vitro proliferation (Cell Titer Glo), Compound 51 with decitabine and venetoclax, OCI-AML3; type: cell-based, human; parameters: Effect size (BIGL, HSA null model): scale not given here
Protocol: as §1, §2, §3, §4, §5, §6

[1] = Compound 51 0.001 μM, Decitabine 0.0015 μM, Venetoclax 0.0001 μM
[2] = Compound 51 0.001 μM, Decitabine 0.015 μM, Venetoclax 0.001 μM
[3] = Compound 51 0.001 μM, Decitabine 0.15 μM, Venetoclax 0.002 μM
[4] = Compound 51 0.001 μM, Decitabine 1.5 μM, Venetoclax 0.02 μM
[5] = Compound 51 0.001 μM, Decitabine 3 μM, Venetoclax 0.2 μM
[6] = Compound 51 0.01 μM, Decitabine 0.0015 μM, Venetoclax 0.0001 μM
[7] = Compound 51 0.01 μM, Decitabine 0.015 μM, Venetoclax 0.001 μM
[8] = Compound 51 0.01 μM, Decitabine 0.15 μM, Venetoclax 0.002 μM
[9] = Compound 51 0.01 μM, Decitabine 1.5 μM, Venetoclax 0.02 μM
[10] = Compound 51 0.01 μM, Decitabine 3 μM, Venetoclax 0.2 μM
[11] = Compound 51 0.05 μM, Decitabine 0.0015 μM, Venetoclax 0.0001 μM
[12] = Compound 51 0.05 μM, Decitabine 0.015 μM, Venetoclax 0.001 μM
[13] = Compound 51 0.05 μM, Decitabine 0.15 μM, Venetoclax 0.002 μM
[14] = Compound 51 0.05 μM, Decitabine 1.5 μM, Venetoclax 0.02 μM
[15] = Compound 51 0.05 μM, Decitabine 3 μM, Venetoclax 0.2 μM
[16] = Compound 51 0.1 μM, Decitabine 0.0015 μM, Venetoclax 0.0001 μM
[17] = Compound 51 0.1 μM, Decitabine 0.015 μM, Venetoclax 0.001 μM
[18] = Compound 51 0.1 μM, Decitabine 0.15 μM, Venetoclax 0.002 μM
[19] = Compound 51 0.1 μM, Decitabine 1.5 μM, Venetoclax 0.02 μM
[20] = Compound 51 0.1 μM, Decitabine 3 μM, Venetoclax 0.2 μM
[21] = Compound 51 0.5 μM, Decitabine 0.0015 μM, Venetoclax 0.0001 μM
[22] = Compound 51 0.5 μM, Decitabine 0.015 μM, Venetoclax 0.001 μM
[23] = Compound 51 0.5 μM, Decitabine 0.15 μM, Venetoclax 0.002 μM
[24] = Compound 51 0.5 μM, Decitabine 1.5 μM, Venetoclax 0.02 μM
[25] = Compound 51 0.5 μM, Decitabine 3 μM, Venetoclax 0.2 μM
[26] = Compound 51 1 μM, Decitabine 0.0015 μM, Venetoclax 0.0001 μM
[27] = Compound 51 1 μM, Decitabine 0.015 μM, Venetoclax 0.001 μM
[28] = Compound 51 1 μM, Decitabine 0.15 μM, Venetoclax 0.002 μM
[29] = Compound 51 1 μM, Decitabine 1.5 μM, Venetoclax 0.02 μM
[30] = Compound 51 1 μM, Decitabine 3 μM, Venetoclax 0.2 μM

SMILES: CC(=O)N1CCC(CN2CC[C@@H](Cc3cn(-c4ccc(F)cc4C(=O)N(C)C(C)C)c4cncc(C)c34)C2)CC1 [Compound 51]
- Effect size (BIGL, HSA null model) (MV4-11 cells; [1]): −0.02
- Effect size (BIGL, HSA null model) (MV4-11 cells; [2]): −0.05
- Effect size (BIGL, HSA null model) (MV4-11 cells; [3]): −0.01
- Effect size (BIGL, HSA null model) (MV4-11 cells; [4]): −0.08
- Effect size (BIGL, HSA null model) (MV4-11 cells; [5]): −0.06
- Effect size (BIGL, HSA null model) (MV4-11 cells; [6]): −0.02
- Effect size (BIGL, HSA null model) (MV4-11 cells; [7]): 0.22
- Synergy/antagonism call (maxR test) (MV4-11 cells; [7]): **
- Effect size (BIGL, HSA null model) (MV4-11 cells; [8]): −0.26
- Synergy/antagonism call (maxR test) (MV4-11 cells; [8]): **
- Effect size (BIGL, HSA null model) (MV4-11 cells; [9]): −0.1
- Synergy/antagonism call (maxR test) (MV4-11 cells; [9]): **
- Effect size (BIGL, HSA null model) (MV4-11 cells; [10]): −0.06
- Effect size (BIGL, HSA null model) (MV4-11 cells; [11]): 0
- Effect size (BIGL, HSA null model) (MV4-11 cells; [12]): −0.17
- Synergy/antagonism call (maxR test) (MV4-11 cells; [12]): **
- Effect size (BIGL, HSA null model) (MV4-11 cells; [13]): −0.24
- Synergy/antagonism call (maxR test) (MV4-11 cells; [13]): **
- Effect size (BIGL, HSA null model) (MV4-11 cells; [14]): −0.1
- Synergy/antagonism call (maxR test) (MV4-11 cells; [14]): **
- Effect size (BIGL, HSA null model) (MV4-11 cells; [15]): −0.06
- Effect size (BIGL, HSA null model) (MV4-11 cells; [16]): 0.03
- Effect size (BIGL, HSA null model) (MV4-11 cells; [17]): −0.06
- Effect size (BIGL, HSA null model) (MV4-11 cells; [18]): −0.09
- Synergy/antagonism call (maxR test) (MV4-11 cells; [18]): **
- Effect size (BIGL, HSA null model) (MV4-11 cells; [19]): −0.3
- Synergy/antagonism call (maxR test) (MV4-11 cells; [19]): **
- Effect size (BIGL, HSA null model) (MV4-11 cells; [20]): −0.06
- Effect size (BIGL, HSA null model) (MV4-11 cells; [21]): 0
- Effect size (BIGL, HSA null model) (MV4-11 cells; [22]): −0.02
- Effect size (BIGL, HSA null model) (MV4-11 cells; [23]): −0.02
- Effect size (BIGL, HSA null model) (MV4-11 cells; [24]): −0.03
- Effect size (BIGL, HSA null model) (MV4-11 cells; [25]): −0.03
- Effect size (BIGL, HSA null model) (MV4-11 cells; [26]): −0.03
- Effect size (BIGL, HSA null model) (MV4-11 cells; [27]): −0.02
- Effect size (BIGL, HSA null model) (MV4-11 cells; [28]): −0.02
- Effect size (BIGL, HSA null model) (MV4-11 cells; [29]): −0.03
- Effect size (BIGL, HSA null model) (MV4-11 cells; [30]): −0.08
- combination effect on proliferation (in words) (MV4-11 cells; pairwise matrix of decitabine and Compound 51 in the presence of Venetoclax, MV4-11, 6-day CellTiter-Glo): synergistically cytotoxic
- Effect size (BIGL, HSA null model) (OCI-AML3 cells; [1]): −0.03
- Effect size (BIGL, HSA null model) (OCI-AML3 cells; [2]): −0.1
- Effect size (BIGL, HSA null model) (OCI-AML3 cells; [3]): −0.05
- Effect size (BIGL, HSA null model) (OCI-AML3 cells; [4]): 0
- Effect size (BIGL, HSA null model) (OCI-AML3 cells; [5]): 0
- Effect size (BIGL, HSA null model) (OCI-AML3 cells; [6]): −0.01
- Effect size (BIGL, HSA null model) (OCI-AML3 cells; [7]): −0.31
- Effect size (BIGL, HSA null model) (OCI-AML3 cells; [8]): −0.06
- Effect size (BIGL, HSA null model) (OCI-AML3 cells; [9]): −0.01
- Effect size (BIGL, HSA null model) (OCI-AML3 cells; [10]): 0
- Effect size (BIGL, HSA null model) (OCI-AML3 cells; [11]): 0.02
- Effect size (BIGL, HSA null model) (OCI-AML3 cells; [12]): 0.01
- Effect size (BIGL, HSA null model) (OCI-AML3 cells; [13]): −0.09
- Effect size (BIGL, HSA null model) (OCI-AML3 cells; [14]): −0.01
- Effect size (BIGL, HSA null model) (OCI-AML3 cells; [15]): 0
- Effect size (BIGL, HSA null model) (OCI-AML3 cells; [16]): 0.03
- Effect size (BIGL, HSA null model) (OCI-AML3 cells; [17]): 0.09
- Effect size (BIGL, HSA null model) (OCI-AML3 cells; [18]): −0.06
- Effect size (BIGL, HSA null model) (OCI-AML3 cells; [19]): −0.01
- Effect size (BIGL, HSA null model) (OCI-AML3 cells; [20]): 0
- Effect size (BIGL, HSA null model) (OCI-AML3 cells; [21]): 0.03
- Effect size (BIGL, HSA null model) (OCI-AML3 cells; [22]): 0.12
- Effect size (BIGL, HSA null model) (OCI-AML3 cells; [23]): 0.01
- Effect size (BIGL, HSA null model) (OCI-AML3 cells; [24]): −0.01
- Effect size (BIGL, HSA null model) (OCI-AML3 cells; [25]): 0
- Effect size (BIGL, HSA null model) (OCI-AML3 cells; [26]): 0.02
- Effect size (BIGL, HSA null model) (OCI-AML3 cells; [27]): 0.11
- Effect size (BIGL, HSA null model) (OCI-AML3 cells; [28]): 0
- Effect size (BIGL, HSA null model) (OCI-AML3 cells; [29]): 0
- Effect size (BIGL, HSA null model) (OCI-AML3 cells; [30]): 0.03
- combination effect on proliferation (in words) (OCI-AML3 cells; Compound 51 with Decitabine in the presence of Venetoclax, OCI-AML3 (NPM1c), 6-day CellTiter-Glo): not antagonistically cytotoxic
